Common to all, as to assay type: in vivo
For assay [1], the system named is Plutella xylostella. Description: Test Example 5: cabbage root immersion, Plutella xylostella, against comparative compounds A and B. Particulars: 25 ppm; root immersion 5 days; 10 second-instar larvae; after 5 days at 24° C. The method, then: In 0.25 mL of a mixed solution of Tween-20 and acetone (mixture volume ratio: Tween-20:acetone=1:19), 2.5 mg of the present compound (1), (4), (10), (82), comparative compound A or B was dissolved. The solution was diluted with ion-exchanged water so that the active ingredient concentration became to the predetermined concentration (25 ppm) to prepare a pesticidal solution for test of the test compound. The root part of cabbages in the fourth leaf period was washed with tap water to remove soils, and then immersed in the pesticidal solution for test. After 5 days from immersion of the root part, the root part was removed, and the leaves and stems were put in a cup (volume; 180 mL). In the cup 10 second-instar larvae of Plutella xylostella were released, and the cup was stored at 24° C. After 5 days, the number of dead pests was countered, and the dead pest rate was calculated by the following equation:
(§1) Dead pest rate(%)=(the number of dead pests/the number of tested pests)×100

In assay [2] the test system is Plutella xylostella. Description: Test Example 2: cabbage root immersion (systemic), dead pest rate of Plutella xylostella larvae. Particulars: Plutella xylostella, 120 h; test concentration 25 ppm; root immersion 5 days; 10 second-instar larvae; after 5 days at 24° C. The method, then:
In 0.25 mL of a mixture solution of Sorgen TW-20 (manufactured by Daiichi Industries Pharmaceuticals, Co., Ltd.) and acetone (mixture volume ratio; Sorgen TW-20:acetone=1:19), 2.5 mg of the present compound (1), (2), (3), (4), (7), (10), (11), (12), (16), (18), (19), (20), (21), (22), (25), (30), (36), (37), (41), (42), (52), (54), (56), (57), (60), (62), (105) or (109) was dissolved. The solution was diluted with ion-exchanged water so that the active ingredient concentration became to a predetermined concentration to prepare a pesticidal solution for test of the test compound. The root part of cabbages in the fourth leaf period were washed with tap water to remove soils, and then immersed in the pesticidal solution for test. After 5 days from immersion of the root part, the root part was removed, and the leaves and stems were put in a cup (volume; 180 mL). In the cup 10 second-instar larvae of Plutella xylostella were released, and the cup was stored at 24° C. After 5 days, the number of dead pests was counted, and the dead pest rate was calculated by the following equation:
as §1
The test concentrations of the other present compounds were 25 ppm.

For the next assay, the system named is Coptotermes formosanus. Put plainly: Test Example 8: filter paper bait test, control rate of Coptotermes formosanus. Conditions: filter paper bait treated with 1 mL of 10 mg/mL acetone solution; 20 ergates; 6 weeks in a dark place. The method, then:
A filter paper having a diameter of 33 mm (No. 1026 manufactured by Toyo Filter Paper, Co., Ltd.) was treated with acetone solution (1 mL) of 10 mg/mL of the present compounds (1) or (12) using a pipette, and dried at room temperature. Hereinafter, the resulting filter paper is referred to as a filter paper bait. 4% agarose was poured into a plastic petri dish having a diameter of 9 cm to make the thickness about 5 mm, and solidified by leaving at rest at room temperature. One circular hole having a diameter of 35 mm (hereinafter, referred to as a well) was made in the solidified agarose. One filter paper bait was put into the well. Then, after 20 ergates of Coptotermes formosanus were released in the above petri dish, the petri dish was capped, and sealed with a parafilm. After storing in a dark place for 6 weeks, the petri dish was opened. The control rate was calculated by observing the life and death of the Coptotermes formosanus in the petri dish.

For assay [3], the system named is Plutella xylostella. Put plainly: Test Example 1: spray on cabbage, dead pest rate of Plutella xylostella larvae. Conditions: Plutella xylostella, 120 h; 500 ppm spray solution, 20 ml/cup on cabbage; 5 second-instar larvae; after 5 days. The method, then:
Ten parts of the present compound (1), (2), (5) to (19), (21) to (34), (36) to (61), (63), (64), (68) to (71), (74), (76) to (78), (82) to (83), (89), (93), (94), (97), (99), (102) to (110), (111), (115), (116) (117) to (120) or (123) to (134); 35 parts of white carbon containing 50 parts of polyoxyethylene alkyl ether sulfate ammonium salt; and 55 parts of water were mixed, and finely ground by a wet grinding method to obtain a 10% flowable agent. The obtained flowable agent was diluted with water so that the active ingredient concentration became to 500 ppm to prepare a spray solution for test.
Cabbages were planted in polyethylene cups, and grown until the third true leaf or the fourth true leaf was developed. The spray solution for test prepared above was sprayed at a rate of 20 ml/cup on the cabbages.
After the pesticidal solution sprayed onto the cabbages was dried, 5 second-instar larvae of Plutella xylostella were put on the cabbages. After 5 days, the number of dead Plutella xylostella was examined, and a dead pest rate was calculated by the following equation:
as §1

For a further assay, the system named is Spondoptela litura. Description: Test Example 3: treated artificial diet (Insecta LF), dead pest rate of Spondoptela litura larvae. Conditions: 144 h, 2 mL on Insecta LF diet, 5 fourth-instar larvae, after 6 days.
Description: Ten parts of the present compound (1) to (5), (7) to (13), (18) to (33), (35) to (49), (52) to (56), (58) to (61), (71), (73) to (77), (79), (80), (82), (83), (93), (94), (95), (96), (97), (100) to (109), (111), (112), (115), (117), (119), (121), or (123) to (133), 35 parts of white carbon containing 50 parts of polyoxyethylene alkyl ether sulfate ammonium salt, and 55 parts of water were mixed, and finely ground by a wet grinding method to obtain a preparation. The obtained preparation was diluted with water so that the active ingredient concentration became to 500 ppm to prepare a pesticidal solution for test. On the bottom of a polyethylene cup having a diameter of 5.5 cm, a filter paper having a diameter of 5.5 cm was placed, on which Insecta LF (Nippon Agriculture Industries, Co., Ltd.) sliced in a thickness of 6 mm and further cut half was laid, and to which 2 mL of the above-described pesticidal solution for test was added. After air-dried, 5 fourth-instar larvae of Spondoptela litura were released in the cup, and the cup was capped. After 6 days, the number of dead pests was counted, and the dead pest rate was calculated by the following equation:
as §1

For assay [4], the system named is Plutella xylostella. Description: Test Example 7: cabbage root immersion, Plutella xylostella, against comparative compound D. Particulars: 25 ppm; root immersion 5 days; 10 second-instar larvae; after 5 days at 24° C. The method, then:
In 0.25 mL of a mixed solution of Tween-20 and acetone (mixture volume ratio: Tween-20:acetone=1:19), 2.5 mg of the present compound (94) or comparative compound D was dissolved. The solution was diluted with ion-exchanged water so that the active ingredient concentration became to the predetermined concentration (25 ppm) to prepare a pesticidal solution for test of the test compound. The root part of cabbages in the fourth leaf period was washed with tap water to remove soils, and then immersed in the pesticidal solution for test. After 5 days from immersion of the root part, the root part was removed, and the leaves and stems were put in a ice cream cup (volume; 180 mL). In the cup 10 second-instar larvae of Plutella xylostella were released, and the cup was stored at 24° C. After 5 days, the number of dead pests was countered, and the dead pest rate was calculated by the following equation:
as §1

The structures appear in SMILES notation.

Broadly, the pest or weed control is the degree to which the test organism was suppressed or injured, in per cent. A lower pest or weed control goes with weak suppression.

In the case of `O=C(NC(=O)c1c(F)cccc1F)Nc1ccc(SC(F)(F)F)cc1F` [comparative compound A], in the assay with Plutella xylostella [1], the dead pest rate was found to be 5%.
In the assay with Plutella xylostella [2], `CN(C(=O)c1c(F)cccc1F)C(=O)N(C)c1ccc(SC(F)(F)C(F)F)cc1F` [(12)] yielded a pest or weed control at 25 ppm of 100%. In the assay with Coptotermes formosanus, this compound had a control rate of 60%.
`CN(C(=O)c1c(F)cccc1F)C(=O)N(C)c1ccc(SC(F)(F)F)cc1F` [(10)] displayed a pest or weed control at 25 ppm in the assay with Plutella xylostella [2] of 100%. The control rate in the assay with Coptotermes formosanus is reported as 65%.
As to `CN(C(=O)NC(=O)c1c(F)cccc1F)c1ccc(SC(F)(F)C(F)F)cc1` [(94)], the pest or weed control at 500 ppm in the assay with Plutella xylostella [3] and with Spondoptela litura was 100% in each case. Also, the dead pest rate in the assay on Plutella xylostella [4] turned out to be 100%.
Regarding `O=C(NC(=O)c1c(F)cccc1F)Nc1ccc(SC(F)(F)C(F)F)cc1` [comparative compound D, reference compound], in the assay with Plutella xylostella [4], the dead pest rate came out at 20%.

For the origin of these results see patent publication US20090176786A1, “Benzoylurea Compounds and Use Thereof” (priority 2005, published 2009).
